Measured values as given in paper PMC11571797, “Vitamin B6 inhibits activity of Helicobacter pylori adenylosuccinate synthetase and growth of reference and clinical, antibiotic-resistant H. pylori strains” (Journal of Enzyme Inhibition and Medicinal Chemistry, 2024).

Biological target: T1, adenylosuccinate synthetase (AdSS) (Helicobacter pylori, UniProt P56137)
T1 construct: gene purA
Assay: X-ray crystal structure with IMP ([…] A); enzyme inhibition, GTP-competitive, and time-dependent inactivation (IC50^eq […] without GTP)
Format: biochemical

T1 sequence (P56137 whole entry): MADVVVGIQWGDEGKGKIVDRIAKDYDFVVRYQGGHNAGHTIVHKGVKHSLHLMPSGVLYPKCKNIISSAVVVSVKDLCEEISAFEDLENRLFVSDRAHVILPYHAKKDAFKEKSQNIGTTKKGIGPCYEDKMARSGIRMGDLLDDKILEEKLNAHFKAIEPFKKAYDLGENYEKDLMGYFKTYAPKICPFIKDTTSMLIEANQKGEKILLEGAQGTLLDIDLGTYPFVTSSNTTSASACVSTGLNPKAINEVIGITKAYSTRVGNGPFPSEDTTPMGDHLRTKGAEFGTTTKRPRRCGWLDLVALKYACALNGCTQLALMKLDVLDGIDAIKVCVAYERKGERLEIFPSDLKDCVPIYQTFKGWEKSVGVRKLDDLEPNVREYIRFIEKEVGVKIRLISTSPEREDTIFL

Structure (SMILES): Cc1ncc(COP(=O)(O)O)c(C=O)c1O [PLP, pyridoxal 5'-phosphate]
- Ki: 6.95 µM
